{
  "source": "paper PMC4077706",
  "about": "“Lifting the Mask: Identification of New Small Molecule Inhibitors of Uropathogenic Escherichia coli Group 2 Capsule Biogenesis” (PLoS ONE, 2014)",
  "key": {"Muscarinic M2": {"biological_target": "T1, Muscarinic M2 (Homo sapiens, UniProt P08172)", "T1 construct": "host or cells: CHO-K1 cells", "T1 sequence (P08172 whole entry)": "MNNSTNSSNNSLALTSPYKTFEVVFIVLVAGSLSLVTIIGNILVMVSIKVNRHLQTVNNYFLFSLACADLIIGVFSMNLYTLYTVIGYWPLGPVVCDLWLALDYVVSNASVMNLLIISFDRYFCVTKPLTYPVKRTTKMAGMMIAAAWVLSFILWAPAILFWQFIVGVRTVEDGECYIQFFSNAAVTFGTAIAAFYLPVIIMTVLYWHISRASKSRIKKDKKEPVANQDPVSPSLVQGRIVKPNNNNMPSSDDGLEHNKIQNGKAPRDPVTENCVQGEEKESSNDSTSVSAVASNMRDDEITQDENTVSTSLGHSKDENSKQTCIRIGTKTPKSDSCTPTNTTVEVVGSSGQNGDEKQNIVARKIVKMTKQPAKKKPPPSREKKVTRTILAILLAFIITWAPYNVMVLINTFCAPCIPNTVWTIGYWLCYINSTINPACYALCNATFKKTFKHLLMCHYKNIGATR", "settings": "cited from earlier work"}, "Muscarinic M1 [1]": {"biological_target": "T2, Muscarinic M1 (Homo sapiens, UniProt P11229)", "T2 construct": "host or cells: CHO-K1 cells", "T2 sequence (P11229 whole entry)": "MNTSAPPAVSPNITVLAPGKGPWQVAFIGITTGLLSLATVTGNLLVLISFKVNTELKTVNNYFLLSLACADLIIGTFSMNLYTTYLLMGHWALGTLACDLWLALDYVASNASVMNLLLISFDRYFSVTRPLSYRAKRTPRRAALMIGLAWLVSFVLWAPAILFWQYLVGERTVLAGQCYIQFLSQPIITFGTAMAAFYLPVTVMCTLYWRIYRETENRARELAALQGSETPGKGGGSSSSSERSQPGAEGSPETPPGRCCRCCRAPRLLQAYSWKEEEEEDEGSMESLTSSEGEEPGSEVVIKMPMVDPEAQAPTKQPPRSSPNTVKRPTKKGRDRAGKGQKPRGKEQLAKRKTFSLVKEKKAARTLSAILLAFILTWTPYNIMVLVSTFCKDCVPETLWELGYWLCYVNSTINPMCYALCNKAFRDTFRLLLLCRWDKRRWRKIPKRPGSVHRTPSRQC", "assay": "Radioligand binding 252610", "settings": "read-out: IC50 Concurrent"}, "Muscarinic M1 [2]": {"biological_target": "T2, Muscarinic M1", "settings": "cited from earlier work"}, "Muscarinic M3": {"biological_target": "Muscarinic M3 (Homo sapiens, UniProt P20309)", "sequence (P20309 whole entry)": "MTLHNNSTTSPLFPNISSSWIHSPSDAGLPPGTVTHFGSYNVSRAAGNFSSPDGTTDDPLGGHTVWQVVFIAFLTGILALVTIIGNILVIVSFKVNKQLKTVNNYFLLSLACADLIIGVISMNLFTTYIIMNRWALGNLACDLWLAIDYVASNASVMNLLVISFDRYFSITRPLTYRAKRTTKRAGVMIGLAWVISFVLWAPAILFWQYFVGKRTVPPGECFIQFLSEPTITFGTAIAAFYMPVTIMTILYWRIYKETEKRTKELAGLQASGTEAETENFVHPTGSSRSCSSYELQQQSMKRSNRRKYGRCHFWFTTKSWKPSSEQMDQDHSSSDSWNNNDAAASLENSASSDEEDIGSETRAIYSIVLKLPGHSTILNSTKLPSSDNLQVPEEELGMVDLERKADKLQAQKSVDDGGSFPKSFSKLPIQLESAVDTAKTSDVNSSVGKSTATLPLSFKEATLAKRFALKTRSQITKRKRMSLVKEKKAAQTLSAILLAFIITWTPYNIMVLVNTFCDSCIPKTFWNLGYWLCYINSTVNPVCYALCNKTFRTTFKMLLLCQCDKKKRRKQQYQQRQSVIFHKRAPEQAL", "settings": "cited from earlier work"}, "[3]": {"settings": "assay standard, general statement; cited from earlier work"}, "Opiate δ1 (OP1, DOP)": {"biological_target": "Opiate δ1 (OP1, DOP) (Homo sapiens, UniProt P41143)", "sequence (P41143 whole entry)": "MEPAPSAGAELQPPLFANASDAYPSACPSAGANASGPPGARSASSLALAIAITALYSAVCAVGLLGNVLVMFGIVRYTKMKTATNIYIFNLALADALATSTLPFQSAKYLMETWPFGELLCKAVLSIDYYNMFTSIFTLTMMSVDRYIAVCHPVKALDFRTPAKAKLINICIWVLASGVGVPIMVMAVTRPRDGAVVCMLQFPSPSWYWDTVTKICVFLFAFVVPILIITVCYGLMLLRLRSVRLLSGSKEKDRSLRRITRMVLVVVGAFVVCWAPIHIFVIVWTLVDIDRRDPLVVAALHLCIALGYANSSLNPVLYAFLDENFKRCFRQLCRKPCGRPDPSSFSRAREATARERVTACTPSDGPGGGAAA", "settings": "cited from earlier work"}, "[4]": {"settings": "cited from earlier work"}},
  "note": "Where two headings read alike, the source gives them in different places.",
  "data": [
    {"smiles": "C[N+]1(C)CCC(OC(=O)C(c2ccccc2)c2ccccc2)CC1.[I-]", "note": "[Compound 4-DAMP, 4-DAMP]", "values": [
      {"measurement": "nH Historical", "setting": "Muscarinic M2", "value": 1.0},
      {"measurement": "IC50", "setting": "Muscarinic M1 [1]", "value": 5.51, "unit": "nM"},
      {"measurement": "nH Historical", "setting": "Muscarinic M1 [2]", "value": 1.0},
      {"measurement": "IC50", "setting": "Muscarinic M1 [2]; read-out: IC50 Historical", "value": 4.5, "unit": "nM"},
      {"measurement": "nH Historical", "setting": "Muscarinic M3", "value": 1.10}
    ]},
    {"smiles": "OCCN(CCO)c1nc(N2CCCCC2)c2nc(N(CCO)CCO)nc(N3CCCCC3)c2n1", "note": "[Dipyridamole]", "values": [
      {"measurement": "solubility of standard", "setting": "[3]", "value": "poorly to moderately soluble"}
    ]},
    {"smiles": "Oc1ccc2c3c1O[C@H]1c4[nH]c5ccccc5c4C[C@@]4(O)[C@@H](C2)N(CC2CC2)CC[C@]314", "note": "[Naltrindole]", "values": [
      {"measurement": "nH Historical", "setting": "Opiate δ1 (OP1, DOP)", "value": 1.0}
    ]},
    {"smiles": "CCN(CC)CCOC(=O)c1ccc(N)cc1", "note": "[Procaine]", "values": [
      {"measurement": "stability in human plasma of standard", "setting": "[4]", "value": "highly unstable"}
    ]}
  ]
}
